From PMC9546217, “Exploring novel nitrofuranyl sulfonohydrazides as anti‐Leishmania and anti‐cancer agents: Synthesis, in vitro efficacy and hit identification” (Chemical Biology & Drug Design, 2022)
Where two headings read alike, the source gives them in different places.

Columns and labels:
Vero cells = assay: Basal cytotoxicity, resazurin assay; settings: read-out: Cytotoxicity, IC50 ± SD, Vero; Vero cells
Experimental: (§1) The assay method is available in the Supinfo S1.
(§2) African green monkey kidney epithelial (Vero) cells (Cellonex, South Africa) were cultured and the basal cytotoxicity of the synthesized compounds with antileishmanial and/or anticancer activity was evaluated using the resazurin assay, as described in Mangwegape et al. ^4 Emetine served as the standard cytotoxic drug. Further use of reference drugs, controls, data analysis, calculations and IC50 determinations were identical to that of the antileishmanial assay.

[1] = tested on: L. donovani strain 1S amastigotes; assay: Anti-amastigote assay (intramacrophage, THP-1 host, resazurin); assay type: cell-based; settings: for IC50: L. donovani 1S, read-out: 1S IC50 ± SD, Amastigote
Experimental: (§3) The activities of synthesized compounds against the intramacrophage parasites of the three Leishmania strains were evaluated using a modified, resazurin‐based method (Jain et al., [2012]; Njanpa et al., [2021]). Suspension cultures of human acute monocytic leukemia (THP‐1) cells were maintained in RPMI‐1640 medium (Sigma Aldrich) supplemented with 10% FBS and 1% penicillin–streptomycin, at 37°C and 5% CO2 in a humidified atmosphere. Duplicate 96‐well plates (for respective anti‐amastigote and cytotoxicity assays) were seeded with 200 μl of a 2.5 × 10^5 cells/ml suspension treated with 25 ng/ml phorbol 12‐myristate 13‐acetate (PMA), followed by 48‐h incubation to promote differentiation into adherent macrophages.
(§4) For the anti‐amastigote assay, differentiated plates were carefully washed with PBS, followed by the addition of 200 μl of stationary phase promastigotes in RPMI 1640 medium with 2% FBS. An MOI of 30:1 was used for all three Leishmania strains. The parasite‐treated plates were incubated for 24 h at 32°C (L. major) or 37°C (L. donovani) and 5% CO2 to promote infection of the macrophages. […] Blanks were represented by growth medium without cells, as well as parasite‐free THP‐1 cells. The treated plates were incubated for 72 h.
(§5) After incubation, the plates were gently washed three times with PBS to remove any remaining extracellular parasites. The wells were then treated with 20 μl of 0.05% sodium dodecyl sulfate in PBS for 30 s to lyse the host macrophages. Lysis was terminated by adding 180 μl promastigote growth medium with 10% FBS. To initiate the resazurin assay, 10 μl of resazurin solution (0.025% in PBS) was added to all wells and the plates were incubated for 24 h at 32°C (L. major) or 37°C (L. donovani) and 5% CO2. Absorbance measurements, calculations, and IC50 determinations were performed as described for the antipromastigote assay (Supinfo S1).

[2] = tested on: L. major strain IR‐173 amastigotes; assay: as above; assay type: cell-based; settings: for IC50: read-out: Antileishmanial activity, IC50 ± SD, Amastigote
Experimental: as §3, §4, §5

[3] = tested on: L. donovani strain 9515 amastigotes; assay: as above; assay type: cell-based; settings: for IC50: L. donovani 9515, read-out: 9515 IC50 ± SD, Amastigote
Experimental: as §3, §4, §5

[4] = tested on: L. donovani strain 9515 promastigotes; assay: Antipromastigote assay (resazurin); assay type: cell-based; settings: L. donovani 9515, read-out: 9515 IC50 ± SD, Promastigote
Experimental: (§6) The antipromastigote activity of synthesized compounds was evaluated as described previously by Mangwegape et al. ([2021]) using three strains of L. donovani (1S (MHOM/SD/62/1S) and 9515 (MHOM/IN/95/9515)) and L. major (IR‐173 [MHOM/IR/−173]). The assay method is available in the Supinfo S1.
(§7) The antipromastigote activity of synthesized compounds was evaluated using a modified, resazurin-based method of Kulshrestha et al. ^2 and Siqueira-Neto et al. ^3 and on three Leishmania strains. Leishmania donovani (strains 1S (MHOM/SD/62/1S) and 9515 (MHOM/IN/95/9515)) and L. major (strain IR-173 (MHOM/IR/-173)) promastigotes were cultured in M199 with Hank's salts and 0.68 mM L-glutamine (Sigma Aldrich) supplemented with 50 U/mL Penicillin/Streptomycin solution (Lonza), 4.2 mM sodium bicarbonate, 25 mM Hepes, 10% fetal bovine serum, 0.25% hemin, 0.1% biotin, and 10 mM adenine (Sigma Aldrich) and the pH adjusted to 7.3 – 7.4. The promastigotes were maintained at 25 °C.
(§8) Amphothericin B (10 μM) served as the standard drug and growth medium without parasites served as the blank. The plates were incubated for 48 hours at 25 °C in humidified atmosphere. After incubation, 50 μL of resazurin solution (0.01% in PBS) was added to each well and the plates were further incubated at 25 °C in the dark for 24 hours. Absorbance was measured at 570 nm and 600 nm using the Thermofisher Scientific GO Multiscan plate reader. Data analysis was performed for each biological replicate using SkanIt 4.0 Research Edition software. Background absorbance of resazurin (600 nm) was subtracted from the absorbance values of resorufin (570 nm). The mean absorbance calculated and the percentage growth inhibition and cell viability were determined by the following equations: […]
(§9) The IC50 and Z-score were determined for each compound’s three biological replicates using the cell viability % values and GraphPad Prism 5. The mean IC50 of the biological replicates with standard deviation (SD) served as the final IC50 of each compound.

[5] = tested on: L. donovani strain 1S promastigotes; assay: Antipromastigote assay (resazurin); assay type: cell-based; settings: L. donovani 1S, read-out: 1S IC50 ± SD, Promastigote
Experimental: as §6, §7, §8, §9

[6] = tested on: L. major strain IR‐173 promastigotes; assay: Antipromastigote assay (resazurin); assay type: cell-based; settings: L. major IR‐173, read-out: Antileishmanial activity, IC50 ± SD, Promastigote
Experimental: as §6, §7, §8, §9

[7] = tested on: Clone 15 HL‐60 promyelocytic leukemia cells; assay: Anticancer assay (resazurin); assay type: cell-based, human; settings: n = 3; read-out: Anticancer activity, IC50 ± SD, Clone 15 HL‐60
Experimental: (§10) The anticancer activities of synthesized compounds were evaluated using a resazurin‐based assay (Czekanska, [2011]). Accordingly, a screening method similar to that of the cytotoxicity assay was used to screen for anticancer activity, using human melanoma (A375), promyelocytic leukemia (Clone 15 HL‐60), lung cancer (A549), and breast cancer (MCF7) cells. The culture and assay methods are provided in the Supinfo S1.
(§11) The potential anticancer activities of synthesized compounds were screened using the resazurin assay. ^5 Breast adenocarcinoma (MCF7, ATCC® HTB-22™) and human melanoma (A375, ATCC® CRL-1619™) cells were cultured in Hyclone Dulbecco's modified Eagle’s medium with high glucose (Separations) supplemented with 10 % fetal bovine serum (FBS) (Thermofisher Scientific) and 1 % L-glutamine, penicillin-streptomycin and non-essential amino acids (Lonza). Human lung carcinoma (A549, ATCC®, CCL-185™) cells were cultured in Ham’s F12K medium supplemented with 10% FBS and 1% L-glutamine, penicillin-streptomycin and non-essential amino acids. Human promyelocytic leukemia (Clone 15 HL-60, ATCC® CRL-1946™) cells were cultured in RPMI-1640 medium (Sigma Aldrich) supplemented with 10% FBS and 1% penicillin-streptomycin. The cell lines were maintained in a humidified atmosphere at 37 °C and 5% CO2.
(§12) For the resazurin assay, 96 well plates were prepared with 100 μL of 100 000 cells/mL MCF7 cell suspension, 100 μL of 50 000 cells/mL A375 cell suspension, 100 μL of 25 000 cells/mL A549 cell suspension, or 50 μL of 50 000 cells/mL HL-60 cell suspension. The MCF7, A375 and A549 cell plates were incubated for 24 hours to allow adherence of the cells to the plate surface, after which the growth medium is replaced with 100 μL medium containing compounds. […] The cell lines were treated with: (i) parthenolide (Sigma Aldrich) (positive control); (ii) growth medium and solvent (negative control to compensate for possible solvent effects); (iii) growth medium and experimental compound solutions. […] Blanks contained growth medium without cells. The treated plates were incubated for 48 hours.
(§13) To initiate the resazurin assay, 50 μL of sterile-filtered resazurin sodium salt (Sigma Aldrich) solution (0.01 % in PBS) was added and the plates incubated for 2 hours (MCF7, A375 and A549 cells) or 24 hours (HL-60 cells). Absorbance was measured at 570 and 600 nm using the Thermofisher Scientific GO Multiscan plate reader. Data analysis was performed for each biological replicate using SkanIt 4.0 Research Edition software. Further data analysis, calculations and IC50 determinations were identical to that of the antileishmanial and cytotoxicity assays.
(§14) For the final IC50 of each compound, the mean IC50 of the biological replicates were calculated with standard deviation (SD).

A375 melanoma cells = assay: Anticancer assay (resazurin); assay type: cell-based, human; settings: n = 3; read-out: Anticancer activity, IC50 ± SD, A375
Experimental: as §10, §11, §12, §13, §14

in vitro = settings: African green monkey
Experimental: as §1, §2

[8] = Cytotoxicity on differentiated host THP-1 macrophages, resazurin assay; assay type: cell-based, human; settings: human, PMA-differentiated THP-1 macrophages, read-out: Cytotoxicity, IC50 ± SD, THP‐1
Experimental: Duplicate 96‐well plates (for respective anti‐amastigote and cytotoxicity assays) were seeded with 200 μl of a 2.5 × 10^5 cells/ml suspension treated with 25 ng/ml phorbol 12‐myristate 13‐acetate (PMA), followed by 48‐h incubation to promote differentiation into adherent macrophages.
Cytotoxicity of the compounds on the differentiated host THP-1 cells were also evaluated. As mentioned, duplicate plates of differentiated THP-1 cells were prepared during the anti-amastigote assay. These plates were incubated for 72 hours to differentiate, instead of replacing the growth medium with parasite-containing medium after 48 hours. […] Blanks were growth medium without cells. The treated plates were incubated for 72 hours, followed by the addition of 50 μL of resazurin solution (0.01% in PBS) to each well and 24-hour incubation.

CC[C@H]1CN2CCc3cc(OC)c(OC)cc3[C@@H]2C[C@@H]1C[C@H]1NCCc2cc(OC)c(OC)cc21 [EM, emetine, reference compound]
IC50 (Vero cells): 80 ± 9 nM

(E)-4-Fluoro-N'-([5-nitrofuran-2-yl]methylene)-(1,1'-biphenyl)-4-sulfonohydrazide [2i]
IC50 [1]: > 10000 nM
IC50 ([2]; L. major IR‐173): > 10000 nM
IC50 [3]: > 10000 nM
IC50 [4]: > 10000 nM
IC50 [5]: 9380 ± 820 nM
IC50 [6]: > 10000 nM
IC50 [7]: > 10000 nM
IC50 (A375 melanoma cells): > 10000 nM
IC50 (Vero cells): 29200 ± 5410 nM

C[C@@H]1[C@H](O)[C@@H](C)/C=C/C=C/C=C/C=C/C=C/C=C/C=C/[C@H](O[C@@H]2O[C@H](C)[C@@H](O)[C@H](N)[C@@H]2O)C[C@@H]2O[C@](O)(C[C@@H](O)C[C@@H](O)[C@H](O)CC[C@@H](O)C[C@@H](O)CC(=O)O[C@H]1C)C[C@H](O)[C@H]2C(=O)O [AMB, Amphotericin B, reference compound]
IC50 ([1]; Leishmania donovani, THP-1): 40 nM
IC50 ([2]; Leishmania major, THP-1, L. major IR‐173): 30 nM
IC50 ([3]; Leishmania donovani, THP-1): 50 nM
IC50 ([5]; Leishmania donovani): 20 nM
IC50 ([6]; Leishmania major): 30 ± 6 nM
IC50 (in vitro): 57800 ± 3220 nM

NC(=O)N/N=C/c1ccc([N+](=O)[O-])o1 [NFZ, nitrofurazone, reference compound]
Selectivity index SI4 ([1]; L. donovani 1S: IC50 THP‐1/IC50 amastigote): > 40
Selectivity index SI3 ([1]; L. donovani 1S: IC50 Vero/IC50 amastigote): > 40
Specificity index SpI2 ([1]; L. donovani 1S: IC50 promastigote/IC50 amastigote): 2.62
IC50 ([1]; Leishmania donovani, THP-1): 2500 ± 400 nM
Specificity index SpI1 ([2]; L. major IR‐173: IC50 promastigote/IC50 amastigote): 0.32
Selectivity index SI6 ([3]; L. donovani 9515: IC50 THP‐1/IC50 amastigote): > 20
Selectivity index SI5 ([3]; L. donovani 9515: IC50 Vero/IC50 amastigote): > 20
Specificity index SpI3 ([3]; L. donovani 9515: IC50 promastigote/IC50 amastigote): 0.37
IC50 at 72 h [8]: > 100000 nM
IC50 ([4]; Leishmania donovani): 1850 ± 140 nM
IC50 ([5]; Leishmania donovani): 6540 ± 930 nM
IC50 ([6]; Leishmania major): 1850 ± 60 nM
IC50 (in vitro; Vero cells (kidney epithelial)): > 100000 nM
